From patent publication EP2970215B1, “PYRROLIDINE DERIVATIVES, PHARMACEUTICAL COMPOSITIONS CONTAINING THEM, AND THEIR USE IN THERAPY” (AbbVie Deutschland GmbH & Co. KG, priority 2013, dated 2014) come the findings set out here.

The target of this experiment is T1, human GlyT1c transporter (Homo sapiens, UniProt P48067).
T1 construct: expressed in transfected cells; host or cells: CHO cells (recombinant; line hGlyT1c_5_CHO is named for the uptake assay)
T1 sequence (P48067 1-706): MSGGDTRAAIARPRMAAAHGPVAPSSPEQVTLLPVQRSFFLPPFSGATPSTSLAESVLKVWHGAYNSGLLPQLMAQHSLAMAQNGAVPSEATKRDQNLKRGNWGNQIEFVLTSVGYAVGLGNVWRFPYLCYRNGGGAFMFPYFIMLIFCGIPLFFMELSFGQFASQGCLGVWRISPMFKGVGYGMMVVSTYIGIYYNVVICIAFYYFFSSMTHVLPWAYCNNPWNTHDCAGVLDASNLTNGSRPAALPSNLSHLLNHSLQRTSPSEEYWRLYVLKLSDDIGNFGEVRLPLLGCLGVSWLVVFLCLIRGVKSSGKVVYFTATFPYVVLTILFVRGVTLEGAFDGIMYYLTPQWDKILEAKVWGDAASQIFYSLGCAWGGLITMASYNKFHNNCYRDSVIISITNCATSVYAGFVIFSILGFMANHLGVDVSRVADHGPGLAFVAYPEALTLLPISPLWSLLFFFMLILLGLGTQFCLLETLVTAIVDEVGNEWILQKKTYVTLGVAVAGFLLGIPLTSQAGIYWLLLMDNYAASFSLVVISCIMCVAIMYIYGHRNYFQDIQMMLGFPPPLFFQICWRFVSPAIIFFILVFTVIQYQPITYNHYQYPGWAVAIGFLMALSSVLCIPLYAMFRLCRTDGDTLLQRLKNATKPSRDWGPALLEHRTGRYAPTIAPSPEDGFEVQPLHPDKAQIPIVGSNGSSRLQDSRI
Briefly: Radioligand binding assay using recombinant CHO cell membranes expressing human GlyT1. Particulars: radioligand binding to human GlyT1c transporter-expressing membranes. An excerpt: 2. Radioligand binding assays using recombinant CHO cell membranes expressing human GlyT1: […]
A word on the Ki: it is a measure of affinity in units of concentration, obtained from inhibition or displacement. For the molecule `Cc1cccc(NC(=O)[C@@H]2CN(S(=O)(=O)c3cn(C)cn3)C[C@H]2c2ccc(F)cc2)c1` (relative stereo) [Example 316, trans-4-(4-fluorophenyl)-1-[(1-methyl-1H-imidazol-4-yl)sulfonyl]-N-(3-methylphenyl)pyrrolidine-3-carboxamide], the Ki was not above 1000 nM.

As for `Cc1ccccc1N[C@@H]1CN(S(=O)(=O)c2cn(C)cn2)C[C@H]1c1ccc(F)cc1` (relative stereo) [Example 84, trans-4-(4-fluorophenyl)-1-[(1-methyl-1H-imidazol-4-yl)sulfonyl]-N-(2-methylphenyl)pyrrolidin-3-amine], the Ki was not above 1000 nM. `Cn1cnc(S(=O)(=O)N2C[C@@H](Nc3ccnc(C(F)(F)F)c3)[C@H](c3ccccc3F)C2)c1` (relative stereo) [Example 204, N-{trans-4-(2-fluorophenyl)-1-[(1-methyl-1H-imidazol-4-yl)sulfonyl]pyrrolidin-3-yl}-2-(trifluoromethyl)pyridin-4-amine]: the Ki is not above 100 nM. The same measure for `Cc1cc(N[C@H]2CN(S(=O)(=O)c3cn(C)cn3)C[C@@H]2c2ccccc2)ccc1Cl` [Example 669, (3R,4S)-N-(4-chloro-3-methylphenyl)-1-[(1-methyl-1H-imidazol-4-yl)sulfonyl]-4-phenylpyrrolidin-3-amine]: not above 100 nM; for `Cn1cnc(S(=O)(=O)N2C[C@H](NCCC3CCCC3)[C@@H](c3ccccc3)C2)c1` [Example 427, (3R,4S)-N-(2-cyclopentylethyl)-1-[(1-methyl-1H-imidazol-4-yl)sulfonyl]-4-phenylpyrrolidin-3-amine]: not above 100 nM. The same measure for `Cn1cnc(S(=O)(=O)N2C[C@H](Nc3cc(C(F)(F)F)ccn3)[C@@H](c3ccccc3)C2)c1` [Example 396, N-{(3R,4S)-1-[(1-methyl-1H-imidazol-4-yl)sulfonyl]-4-phenylpyrrolidin-3-yl}-4-(trifluoromethyl)pyridin-2-amine]: not above 10 nM. For the molecule `Cc1nc(S(=O)(=O)N2C[C@H](Nc3ccc(F)c(C(F)(F)F)c3)[C@@H](c3ccc(F)cc3)C2)cn1C` [Example 756, (3R,4S)-1-[(1,2-dimethyl-1H-imidazol-4-yl)sulfonyl]-4-(4-fluorophenyl)-N-[4-fluoro-3-(trifluoromethyl)phenyl]pyrrolidin-3-amine], the Ki was not above 10000 nM. For `Cn1cnc(S(=O)(=O)N2C[C@@H](C(=O)NCc3cccc(C(F)(F)F)c3)[C@H](c3ccc(F)cc3)C2)c1` (relative stereo) [Example 632, Trans-4-(4-fluorophenyl)-1-[(1-methyl-1H-imidazol-4-yl)sulfonyl]-N-[3-(trifluoromethyl)benzyl]pyrrolidine-3-carboxamide] the value was not above 1000 nM; for `Cn1cnc(S(=O)(=O)N2C[C@@H](Nc3cccc(F)c3F)[C@H](c3ccc(F)cc3)C2)c1` (relative stereo) [Example 163, trans-N-(2,3-difluorophenyl)-4-(4-fluorophenyl)-1-[(1-methyl-1H-imidazol-4-yl)sulfonyl]pyrrolidin-3-amine], not above 1000 nM. For `Cn1cnc(S(=O)(=O)N2C[C@H](NCCc3cccc(Cl)c3)[C@@H](c3ccccc3)C2)c1` [Example 468, (3R,4S)-N-[2-(3-chlorophenyl)ethyl]-1-[(1-methyl-1H-imidazol-4-yl)sulfonyl]-4-phenylpyrrolidin-3-amine] the value was not above 100 nM; for `CCCCCCN[C@@H]1CN(S(=O)(=O)c2cn(C)cn2)C[C@H]1c1ncccc1F` (relative stereo) [Example 762, Trans-4-(3-fluoropyridin-2-yl)-N-hexyl-1-[(1-methyl-1H-imidazol-4-yl)sulfonyl]pyrrolidin-3-amine], not above 100 nM.

Regarding `Cn1cnc(S(=O)(=O)N2C[C@@H](S(=O)(=O)c3ccccc3)[C@H](c3ccccc3)C2)c1` (relative stereo) [Example 385, 1-methyl-4-{[trans-3-phenyl-4-(phenylsulfonyl)pyrrolidin-1-yl]sulfonyl}-1H-imidazole], the Ki is not above 10000 nM. On to `Cn1cnc(S(=O)(=O)N2C[C@@H](COc3ccc(Cl)c(C(F)(F)F)c3)[C@H](c3ccc(F)cc3)C2)c1` (relative stereo) [Example 249, 4-{[trans-3-{[4-chloro-3-(trifluoromethyl)phenoxy]methyl}-4-(4-fluorophenyl)pyrrolidin-1-yl]sulfonyl}-1-methyl-1H-imidazole], for which the inhibition constant (Ki) is not above 1000 nM. `Cn1cnc(S(=O)(=O)N2C[C@@H](Nc3ccc(F)c(Cl)c3)[C@H](c3ccc(F)cc3)C2)c1` [Example 387, (3S,4R)-N-(3-chloro-4-fluorophenyl)-4-(4-fluorophenyl)-1-[(1-methyl-1H-imidazol-4-yl)sulfonyl]pyrrolidin-3-amine]: the Ki is not above 10000 nM. With `COC[C@H](C)NC[C@@H]1CN(S(=O)(=O)c2cn(C)cn2)C[C@H]1c1ccc(F)cc1` (mixture of isomers) [Example 596, (2S)-N-({trans-4-(4-fluorophenyl)-1-[(1-methyl-1H-imidazol-4-yl)sulfonyl]pyrrolidin-3-yl}methyl)-1-methoxypropan-2-amine], the Ki is not above 10000 nM. The same measure for `Cn1cnc(S(=O)(=O)N2C[C@@H](Nc3ccc4ncccc4c3)[C@H](c3ccccc3)C2)c1` (relative stereo) [Example 229, N-{trans-1-[(1-methyl-1H-imidazol-4-yl)sulfonyl]-4-phenylpyrrolidin-3-yl}quinolin-6-amine]: not above 10000 nM; for `Cn1cnc(S(=O)(=O)N2C[C@@H](Nc3cc(C(F)(F)F)ncn3)[C@H](C3CCCCC3)C2)c1` (relative stereo) [Example 531, N-{trans-4-cyclohexyl-1-[(1-methyl-1H-imidazol-4-yl)sulfonyl]pyrrolidin-3-yl}-6-(trifluoromethyl)pyrimidin-4-amine]: not above 100 nM. For `Cn1cnc(S(=O)(=O)N2C[C@H](Nc3cc(OCC(F)(F)F)ccn3)[C@@H](c3ccc(F)cc3)C2)c1` [Example 807, N-{(3R,4S)-4-(4-fluorophenyl)-1-[(1-methyl-1H-imidazol-4-yl)sulfonyl]pyrrolidin-3-yl}-4-(2,2,2-trifluoroethoxy)pyridin-2-amine] the value was not above 10 nM; for `Cc1ccccc1CN[C@@H]1CN(S(=O)(=O)c2cn(C)cn2)C[C@H]1c1ccc(F)cc1` (relative stereo) [Example 153, trans-4-(4-fluorophenyl)-N-(2-methylbenzyl)-1-[(1-methyl-1H-imidazol-4-yl)sulfonyl]pyrrolidin-3-amine], not above 1000 nM. The same measure for `CCCCOC(=O)O[C@@H]1CN(S(=O)(=O)c2cn(C)cn2)C[C@H]1c1ccc(F)cc1` [Example 697, butyl (3S,4R)-4-(4-fluorophenyl)-1-[(1-methyl-1H-imidazol-4-yl)sulfonyl]pyrrolidin-3-yl carbonate]: not above 1000 nM; for `Cn1cnc(S(=O)(=O)N2C[C@@H](Nc3ccc(Cl)cc3)[C@H](c3ccc(F)cc3)C2)c1` (relative stereo) [Example 95, trans-N-(4-chlorophenyl)-4-(4-fluorophenyl)-1-[(1-methyl-1H-imidazol-4-yl)sulfonyl]pyrrolidin-3 - amine]: not above 1000 nM. Consider `Cc1ncc(S(=O)(=O)N2CC(Nc3ccc(F)c(F)c3)C(c3ccccc3)C2)n1C` (stereo not drawn) [Example 490, N-(3,4-difluorophenyl)-1-[(1,2-dimethyl-1H-imidazol-5-yl)sulfonyl]-4-phenylpyrrolidin-3-amine], for which the Ki is not above 10000 nM.

Consider `Cn1cnc(S(=O)(=O)N2C[C@@H](NCc3ccc(C(F)(F)F)cc3Cl)[C@H](c3ccccc3)C2)c1` (relative stereo) [Example 281, trans-N-[2-chloro-4-(trifluoromethyl)benzyl]-1-[(1-methyl-1H-imidazol-4-yl)sulfonyl]-4-phenylpyrrolidin-3-amine], for which the Ki is not above 10 nM.

With `CCC(C)(C)CN[C@H]1CN(S(=O)(=O)c2cn(C)cn2)C[C@@H]1c1ccccc1` [Example 450, (3R,4S)-N-(2,2-dimethylbutyl)-1-[(1-methyl-1H-imidazol-4-yl)sulfonyl]-4-phenylpyrrolidin-3-amine], the Ki is not above 1000 nM. The same measure for `Cn1cnc(S(=O)(=O)N2C[C@@H](Nc3cccc(C(F)(F)F)c3)[C@H](C3CCCOC3)C2)c1` (relative stereo) [Example 782, trans-1-[(1-methyl-1H-imidazol-4-yl)sulfonyl]-4-(tetrahydro-2H-pyran-3-yl)-N-[3-(trifluoromethyl)phenyl]pyrrolidin-3-amine]: not above 1000 nM; for `COCCOCCN[C@H]1CN(S(=O)(=O)c2cn(C)cn2)C[C@@H]1c1ccccc1` [Example 666, (3R,4S)-N-[2-(2-methoxyethoxy)ethyl]-1-[(1-methyl-1H-imidazol-4-yl)sulfonyl]-4-phenylpyrrolidin-3-amine]: not above 10000 nM. The same measure for `Cn1cnc(S(=O)(=O)N2C[C@@H](Nc3ccccc3C(F)(F)F)[C@H](c3ccc(F)cc3)C2)c1` (relative stereo) [Example 87, trans-4-(4-fluorophenyl)-1-[(1-methyl-1H-imidazol-4-yl)sulfonyl]-N-[2-(trifluoromethyl)phenyl]pyrrolidin-3-amine]: not above 10000 nM.
